Reference: US8778923B2, “GLP-1 receptor modulators” (Receptos, Inc., priority 2011, dated 2014)

What follows are compounds tested against T1, GLP-1R (Homo sapiens, UniProt P43220) (assay: EC20 GLP-1(9-36) PAM cAMP assay: dose response of compound in the presence of fixed concentration of GLP-1(9-36)). Details: GLP-1R CRE-bla CHO-K1 cells, compound dose response in presence of fixed concentration of GLP-1(9-36).
T1 construct: host or cells: CRE-bla CHO-K1
Format: cell-based
How it was run: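 Positive allosteric modulation read as cAMP rise: 12-point compound titration combined with a fixed EC20 level of GLP-1(9-36) on GLP-1R CHO-K1 cells, IBMX present, 30 min at 37 °C. Luminescent HitHunter signal converted to cAMP; nonlinear fit gave EC50 and Emax.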

T1 sequence (P43220 24-463): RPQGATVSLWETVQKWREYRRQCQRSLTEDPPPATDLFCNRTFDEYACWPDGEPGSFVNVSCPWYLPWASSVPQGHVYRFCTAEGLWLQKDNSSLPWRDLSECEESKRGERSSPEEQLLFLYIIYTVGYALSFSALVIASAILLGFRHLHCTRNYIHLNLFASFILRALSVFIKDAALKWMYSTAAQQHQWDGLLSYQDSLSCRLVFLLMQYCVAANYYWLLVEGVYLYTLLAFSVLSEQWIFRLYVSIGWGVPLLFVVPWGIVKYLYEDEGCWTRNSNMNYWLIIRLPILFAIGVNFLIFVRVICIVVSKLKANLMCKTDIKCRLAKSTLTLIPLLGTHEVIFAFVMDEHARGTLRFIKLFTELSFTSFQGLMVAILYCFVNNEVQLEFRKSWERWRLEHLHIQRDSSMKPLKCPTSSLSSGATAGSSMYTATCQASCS
T1 sequence (P01275 100-127 partner limits assumed): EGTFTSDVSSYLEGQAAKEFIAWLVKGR

Row | EC50 [µM] | SMILES
1 | 2.5 to 5 | CC(C)(C)c1ccc(C(=O)N[C@@H](Cc2ccc(-c3ncc(-c4ccc(Cl)c(Cl)c4)cn3)cc2)C(=O)O)cc1 [Compound 213]
2 | 0.8 to 2.5 | CC(C)(C)c1ccc(C(=O)N[C@@H](Cc2ccc(-c3noc(-c4ccc(-c5ccc(C#N)cc5)cc4)n3)cc2)C(=O)O)cc1 [Compound 29]
3 | 0.8 to 2.5 | C[C@H](NC(=O)[C@H](Cc1ccc(-c2ncc(-c3ccc(C(C)(C)C)cc3)cn2)cc1)NC(=O)c1ccc(C(C)(C)C)s1)C(=O)O [Compound 364]
4 | 5 to 10 | CCCCCCCOc1ccc(-c2cnc(-c3ccc(C[C@H](NC(=O)c4ccc(C(C)(C)C)s4)C(=O)N[C@H](Cc4cnc[nH]4)C(=O)O)cc3)nc2)cc1 [Compound 325]
5 | 0.8 to 2.5 | CC(C)Oc1ccc(-c2cnc(-c3ccc(C[C@H](NC(=O)c4ccc(C(C)(C)C)s4)C(=O)O)cc3)nc2)cc1 [Compound 241]
6 | 0.8 to 2.5 | CCCCCCCOc1ccc(-c2cnc(-c3ccc(C[C@H](NC(=O)c4ccc(OCC)cc4)C(=O)O)cc3)nc2)cc1 [Compound 108]
7 | 5 to 10 | CCCCCCCCCCCCCCCCOc1ccc(-c2cnc(-c3ccc(C[C@H](NC(=O)c4ccc(C(C)(C)C)s4)C(=O)O)cc3)nc2)cc1 [Compound 252]
8 | 0.8 to 2.5 | CCCCCCCOc1ccc(-c2cnc(-c3ccc(C[C@H](NC(=O)c4ccc(C(C)C)cc4)C(=O)N[C@@H](Cc4cnc[nH]4)C(=O)O)cc3)nc2)cc1 [Compound 311]
9 | 0.8 to 2.5 | CCCCCCCOc1ccc(-c2cnc(-c3ccc(C[C@H](NC(=O)c4ccc(CCCC)cc4)C(=O)O)cc3)nc2)cc1 [Compound 107]
10 | 0.8 to 2.5 | CC(C)(C)c1ccc(-c2cnc(-c3ccc(C[C@H](NC(=O)c4ccc(C(C)(C)C)s4)C(=O)O)cc3)nc2)cc1 [Compound 165]
11 | 0.8 to 2.5 | COc1cc(-c2nc(-c3ccc(C[C@H](NC(=O)c4ccc(C(C)(C)C)cc4)C(=O)O)cc3)no2)cc(OC)c1OC [Compound 39]
12 | 0.8 to 2.5 | CCCCCCCOc1ccc(C2CCN(c3ccc(C[C@H](NC(=O)c4ccc(C(C)(C)C)cc4)C(=O)O)cc3)CC2)cc1 [Compound 264]
13 | 5 to 10 | CC(C)(C)c1ccc(C(=O)N[C@@H](Cc2ccc(N3CCN(c4ccc(-c5ccccc5)cc4)CC3)cc2)C(=O)O)cc1 [Compound 266]
14 | 0.8 to 2.5 | CCCCCCCOc1ccc(-c2cnc(-c3ccc(C[C@H](NC(=O)c4cc5ccccc5s4)C(=O)O)cc3)nc2)cc1 [Compound 156]
15 | 5 to 10 | CC(C)(C)c1ccc(C(=O)N[C@@H](Cc2ccc(-c3ncc(-c4ccc5c(c4)CCCN5)cn3)cc2)C(=O)O)cc1 [Compound 236]
16 | 2.5 to 5 | CCCCCCCOc1ccc(-c2cnc(-c3ccc(C[C@H](NC(=O)c4ccc(N5CCCC5)cc4)C(=O)O)cc3)nc2)cc1 [Compound 90]
17 | 0.8 to 2.5 | CCCCCCCCOc1ccc(-c2cnc(-c3ccc(C[C@H](NC(=O)c4ccc(C(C)(C)C)s4)C(=O)O)cc3)nc2)cc1 [Compound 259]
18 | < 0.8 | CCCCCCCOc1ccc(-c2cnc(-c3ccc(C[C@H](NC(=O)c4ccc(C(C)(C)C)cc4)C(=O)NCCC(=O)O)cc3)nc2)cc1 [Compound 298, (S)-3-(2-(4-(tert-butyl)benzamido)-3-(4-(5-(4-(heptyloxy)phenyl)pyrimidin-2-yl)phenyl)propanamido)propanoic acid]
19 | 2.5 to 5 | CC(C)(C)c1ccc(C(=O)N[C@@H](Cc2ccc(-c3noc(-c4ccc(O)cc4)n3)cc2)C(=O)O)cc1 [Compound 43]

Row | EC50 [µM] | SMILES
20 | 2.5 to 5 | CC(C)(C)c1ccc(C(=O)N[C@@H](Cc2ccc(-c3noc(-c4ccc(S(N)(=O)=O)cc4)n3)cc2)C(=O)O)cc1 [Compound 54]
21 | 0.8 to 2.5 | CC(C)(C)c1ccc(-c2cnc(-c3ccc(C[C@H](NC(=O)c4ccc(C(C)(C)C)s4)C(=O)N4CCC[C@@H]4C(=O)O)cc3)nc2)cc1 [Compound 358]
22 | 0.8 to 2.5 | CCCCCCCOc1ccc(-c2cnc(-c3ccc(C[C@@H](NC(=O)c4ccc(C(C)(C)C)s4)C(=O)N[C@@H](C)C(=O)O)cc3)nc2)cc1 [Compound 374]
23 | 0.8 to 2.5 | CCCCCCCOc1ccc(-c2cnc(-c3ccc(C[C@H](NC(=O)c4coc(C(C)(C)C)n4)C(=O)O)cc3)nc2)cc1 [Compound 296]
24 | 0.8 to 2.5 | Cc1ccc(-c2ccc(-c3cnc(-c4ccc(C[C@H](NC(=O)c5ccc(C(C)(C)C)cc5)C(=O)O)cc4)nc3)cc2)cc1 [Compound 229]
25 | 5 to 10 | CCCCCCCOc1ccc(-c2cnc(-c3ccc(CC(NC(=O)c4ccc(C(C)(C)C)cc4)C(=O)O)cc3)s2)cc1 (centres unmarked) [Compound 81]
26 | 0.8 to 2.5 | CNc1ccc(-c2nc(-c3ccc(C[C@H](NC(=O)c4ccc(C(C)(C)C)cc4)C(=O)O)cc3)no2)cc1 [Compound 63]
27 | 2.5 to 5 | CNc1ccc(-c2cnc(-c3ccc(C[C@H](NC(=O)c4ccc(C(C)(C)C)cc4)C(=O)O)cc3)nc2)cc1 [Compound 233]
28 | 0.8 to 2.5 | CCCCCCCOc1ccc(-c2cnc(-c3ccc(C[C@H](NC(=O)c4cnn(C(C)C)c4)C(=O)O)cc3)nc2)cc1 [Compound 139]
29 | 0.8 to 2.5 | Cc1cccc(-c2ccc(-c3cnc(-c4ccc(C[C@H](NC(=O)c5ccc(C(C)(C)C)cc5)C(=O)O)cc4)nc3)cc2)c1 [Compound 230]
30 | < 0.8 | CCCCCCCOc1ccc(-c2cnc(-c3ccc(C[C@H](NC(=O)c4ccc(C(C)C)cc4)C(=O)N[C@@H](CO)C(=O)O)cc3)nc2)cc1 [Compound 309]
31 | 5 to 10 | CC(C)(C)c1ccc(C(=O)N[C@@H](Cc2ccc(-c3noc(-c4ccc(-c5ccccc5)cc4)n3)cc2)C(=O)O)cc1 [Compound 4]
32 | 2.5 to 5 | CC(C)(C)c1ccc(C(=O)N[C@@H](Cc2ccc(-c3noc(-c4ccc(-c5ccc(F)c(F)c5)cc4)n3)cc2)C(=O)O)cc1 [Compound 22]
33 | 0.8 to 2.5 | CCCCCCCOc1ccc(-c2cnc(-c3ccc(C[C@H](NC(=O)c4ccc(C(C)C)cc4)C(=O)N[C@@H](CC(C)C)C(=O)O)cc3)nc2)cc1 [Compound 308]
34 | 2.5 to 5 | CCSc1ccc(-c2nc(-c3ccc(C[C@H](NC(=O)c4ccc(C(C)(C)C)cc4)C(=O)O)cc3)no2)cc1 [Compound 42]
35 | 0.8 to 2.5 | CCCCCCCOc1ccc(-c2cnc(-c3ccc(C[C@H](NC(=O)c4ccc(S(C)(=O)=O)cc4)C(=O)O)cc3)nc2)cc1 [Compound 99]
36 | 2.5 to 5 | Cc1ccccc1-c1ccc(-c2nc(-c3ccc(C[C@H](NC(=O)c4ccc(C(C)(C)C)cc4)C(=O)O)cc3)no2)cc1 [Compound 14]
37 | 2.5 to 5 | CCCOc1ccc(-c2nc(-c3ccc(C[C@H](NC(=O)c4ccc(C(C)(C)C)cc4)C(=O)O)cc3)no2)cc1 [Compound 34]
38 | 0.8 to 2.5 | CCCCCOc1ccc(-c2cnc(-c3ccc(C[C@H](NC(=O)c4ccc(C(C)(C)C)s4)C(=O)O)cc3)nc2)cc1 [Compound 238]

Row | EC50 [µM] | SMILES
39 | 2.5 to 5 | CSc1ccc(-c2nc(-c3ccc(C[C@H](NC(=O)c4ccc(C(C)(C)C)cc4)C(=O)O)cc3)no2)cc1 [Compound 40]
40 | 0.8 to 2.5 | CC(C)c1ccc(-c2cnc(-c3ccc(C[C@H](NC(=O)c4ccc(C(C)(C)C)s4)C(=O)O)cc3)nc2)cc1 [Compound 242]
41 | 0.8 to 2.5 | CCCCCCCOc1ccc(-c2cnc(-c3ccc(C[C@H](NC(=O)c4ccc(-c5ccccc5)cc4)C(=O)O)cc3)nc2)cc1 [Compound 91]
42 | 0.8 to 2.5 | CCCCCCCOc1ccc(-c2cnc(-c3ccc(C[C@H](NC(=O)c4ccc(C(C)(C)C)s4)C(=O)N[C@@H](CC(=O)O)C(=O)O)cc3)nc2)cc1 [Compound 322]
43 | 2.5 to 5 | CC(C)(C)c1ccc(C(=O)N[C@@H](Cc2ccc(-c3ncc(-c4cccc(N5CCCCC5)c4)cn3)cc2)C(=O)O)cc1 [Compound 216]
44 | 2.5 to 5 | CC(C)(C)c1ccc(C(=O)N[C@@H](Cc2ccc(-c3noc(-c4ccc(N)cc4)n3)cc2)C(=O)O)cc1 [Compound 62]
45 | 2.5 to 5 | CC(C)(C)c1ccc(C(=O)N[C@@H](Cc2ccc(-c3ncc(N4CCC(C(C)(C)C)CC4)cn3)cc2)C(=O)O)cc1 [Compound 253, (S)-2-(4-(tert-butyl)benzamido)-3-(4-(5-(4-(tert-butyl)piperidin-1-yl)pyrimidin-2-yl)phenyl)propanoic acid]
46 | < 0.8 | CCCCCCCOc1ccc(-c2cnc(-c3ccc(C[C@H](NC(=O)c4ccc(C(C)(C)C)s4)C(=O)NCCC(=O)O)cc3)nc2)cc1 [Compound 336]
47 | < 0.8 | CCCCCCCOc1ccc(-c2cnc(-c3ccc(C[C@H](NC(=O)c4cnn(C(C)(C)C)c4)C(=O)NCC(=O)O)cc3)nc2)cc1 [Compound 372]
48 | 0.8 to 2.5 | CCCCCCCOc1ccc(-c2cnc(-c3ccc(C[C@H](NC(=O)c4ccc(C(C)C)cc4)C(=O)N[C@H](C)C(=O)O)cc3)nc2)cc1 [Compound 312]
49 | 0.8 to 2.5 | CC(C)(C)c1ccc(C(=O)N[C@@H](Cc2ccc(-c3noc(-c4ccc(C(C)(C)C)cc4)n3)cc2)C(=O)O)cc1 [Compound 8]
50 | 5 to 10 | Cc1cccc(-c2cnc(-c3ccc(C[C@H](NC(=O)c4ccc(C(C)(C)C)cc4)C(=O)O)cc3)nc2)c1 [Compound 217]
51 | 2.5 to 5 | CCCCCCCOc1ccc(-c2nc(-c3ccc(C[C@H](NC(=O)c4ccc(C(C)(C)C)cc4)C(=O)O)cc3)no2)cc1 [Compound 2, (S)-2-(4-(tert-butyl)benzamido)-3-(4-(5-(4-(heptyloxy)phenyl)-1,2,4-oxadiazol-3-yl)phenyl)propanoic acid]
52 | < 0.8 | CCCCCCCOc1ccc(-c2cnc(-c3ccc(C[C@H](NC(=O)c4ccc(C(C)(C)C)s4)C(=O)N4CCCC(C(=O)O)C4)cc3)nc2)cc1 (some centres unmarked) [Compound 347]
53 | 0.8 to 2.5 | CCCCCCCOc1ccc(-c2cnc(-c3ccc(C[C@H](NC(=O)c4ccc(C#N)cc4)C(=O)O)cc3)nc2)cc1 [Compound 98]
54 | 0.8 to 2.5 | CC(C)(C)c1ccc(C(=O)N[C@@H](Cc2ccc(-c3ncc(-c4ccc(C(C)(C)C)cc4)cn3)cc2)C(=O)O)cc1 [Compound 199]
55 | 2.5 to 5 | CCCCCCCOc1ccc(-c2cnc(-c3ccc(C[C@H](NC(=O)c4ccc(CCC)s4)C(=O)O)cc3)nc2)cc1 [Compound 147]
56 | 0.8 to 2.5 | CCCCCCCOc1ccc(-c2cnc(-c3ccc(C[C@H](NC(=O)c4ccc(C(C)(C)C)s4)C(=O)N[C@H](CC(=O)O)Cc4ccccc4)cc3)nc2)cc1 [Compound 343]
